Assay results published in PMC9188586, “Design, synthesis and evaluation of novel tetrahydropyridothienopyrimidin-ureas as cytotoxic and anti-angiogenic agents” (Scientific Reports, 2022).

Legend:
MCF-7 cells = assay: Annexin V/PI flow cytometry apoptosis analysis, MCF-7; type: cell-based; conditions: MCF-7, IC50 concentration
Protocol: (§1) The experiment was conducted by flow cytometry analysis of […] cells with propidium iodide (PI) and annexin V-fluorescein isothiocyanate (annexine V-FITC).
(§2) Then, cells were trypsinized, rinsed with phosphate-bufferede buffered saline (PBS) and then centrifuged at 1200 rpm for 3 min. After this, the binding buffer (500 μL) was added to the resulting cells, followed by addition and mixing with […] and PI (5 μL). After this, the samples were incubated in dark for 10 to 15 min at room temperature, and then the cellular analysis was measured by flow cytometer (FACS Calibur Bectone-Dickinson).

[1] = system: HUVEC (human umbilical vein endothelial cell); assay: MTT antiproliferative assay, HUVEC; type: cell-based; conditions: for IC50: Homo sapiens, HUVEC, MTT assay, 48 h incubation
Protocol: (§3) Two series of new tetrahydropyridothienopyrimidines were evaluated for their cytotoxicity against a panel of cell lines, including MCF-7 (breast cancer), SW480 (colon cancer), PC-3 (prostate cancer), HEPG-2 (liver cancer) and HUVEC (human umbilical vein endothelial cell) using 3-(4,5-dimethyl- thiazol-2-yl)-2,5-diphenyltetrazolium bromide (MTT) assay. Sorafenib was used as a positive control. The cytotoxicity is expressed as the concentration that inhibits 50% of cell viability (IC50). […] The preliminary SAR is evaluated on the basis of cytotoxicity results of phenyl derivatives (11a–k) and pyridine derivatives (11l–11y).The mesomeric effect didn’t improve the cytotoxicity of compound 11d in the first series.
(§4) Cytotoxicity of the compounds was measured by detecting the ability of cells in transforming MTT into a purple formazan dye. The different cell lines were provided by the National Cell Bank of Iran (Pastor Institute, Tehran, Iran). The required materials and reagents were purchased from Sigma. After the cell culture in RPMI-1640 medium and DMEM containing 10% FBS (Gibco, Milano, Italy), the suspension of MCF-7 (7000) and other cells (5000) were poured into 96 well plates and incubated in a humidified incubator containing 5% CO2 at 37 °C for 24 h. Subsequently, a solution of the compounds in DMSO was added to these plates and incubated for 48 h. After incubation, the solution of 5% 3-(4,5-Dimethyl-2-thiazolyl)-2,5-diphenyl-2H-tetrazolium bromide (MTT) was added to all the wells and incubation was continued for another 4 h. The record of color intensity of the formazan solution was at 570 nm by Bio-Rad microplate reader (Model 680) which reflects the cell growth condition.

SW480 (colon cancer) = assay: MTT antiproliferative assay, SW480; type: cell-based; conditions: Homo sapiens, SW480, 48 h incubation
Protocol: as §3, §4

MRC5 normal cell line = assay: MTT cytotoxicity against normal cell line MRC5; type: cell-based; conditions: for IC50: Homo sapiens, MRC5, MTT assay, normal cell line; for SI (Selectivity Index): IC50 value normal cell (MRC5)/IC50 value cancer cell (MCF-7)
Protocol: as §4

HUVEC cells = assay: Annexin V/PI flow cytometry apoptosis analysis, HUVEC; type: cell-based, human; conditions: IC50 concentration
Protocol: as §1, §2

PC-3 (prostate cancer) = assay: MTT antiproliferative assay, PC-3; type: cell-based; conditions: 48 h incubation
Protocol: as §3, §4

MCF-7 (breast cancer) = assay: MTT antiproliferative assay, MCF-7; type: cell-based; conditions: Homo sapiens, MCF7, 48 h incubation
Protocol: as §3, §4

HEPG-2 (liver cancer) = assay: MTT antiproliferative assay, HEPG-2; type: cell-based; conditions: Homo sapiens, HepG2, 48 h incubation
Protocol: as §3, §4

[2] = system: chick chorioallantoic membrane (CAM); assay: Chick chorioallantoic membrane (CAM) anti-angiogenic assay; type: in vivo; conditions: IC50 concentration, compared with Sorafenib as positive control
Protocol: The hydrogen bonding between NH groups of urea and target proteins were known to give rise to better inhibition of an important growth factor receptor (VEGFR-2) involved in the process of angiogenesis. Thus, the chick chorioallantoic membrane (CAM) assay was utilized as an in-vivo technique to evaluate the anti-vascular effects. Therefore, the anti-angiogenic strength of compounds were investigated by a cheap and simple CAM assay (Figs. 4, 5)[32],[33]. The anti-angiogenic strength was measured and compared with DMSO (control) and Sorafenib as a positive control.
All eggs were supplied from (Poultry Breeding Farm, Tehran, Iran). Since the allantois of the chick embryo appears at about 3.5 days of incubation, the corresponding eggs were incubated (37.5 °C, relative humidity: 55–65%). To decrease the risk of infection, the particular regions of the egg, e.g., the front side of the embryo were cleaned and sterilized with 70% EtOH. On the 6th incubation day, a false air sac was created directly over the CAM, permitting its detachment from the shell membrane. The procedure was continued through a square incision over the CAM. The prepared window in a square form (1 × 1 cm), was covered by a flexible film and then transported to the incubator. On the 8th incubation day, the particular paper discs (Whatman) were coated with target agents and placed in the central area of the corresponding window. The surface of CAM was visually evaluated on the 12th incubation day using the stereomicroscope. We decided to use the number and the length of capillary blood vessels as the index of anti-angiogenic activity. Consequently, the prepared images were analyzed by the advantageous software, Image J[22],[23].

Row | SMILES | Apoptosis induction (in words) (MCF-7 cells) | IC50 [1] [µM] | IC50 (SW480 (colon cancer)) [µM] | IC50 (MRC5 normal cell line) [µM] | SI (Selectivity Index) (MRC5 normal cell line) | melting point [°C] | Apoptosis induction (in words) (HUVEC cells) | IC50 (PC-3 (prostate cancer)) [µM] | IC50 (MCF-7 (breast cancer)) [µM] | IC50 (HEPG-2 (liver cancer)) [µM] | Inhibitory effect on growing CAM (in words) [2] | increase of cytotoxicity against HUVEC on moving chlorine to para position ([1]; 11t vs 11u) [folds]
1 | Cc1cccc(NC(=O)Nc2nnc(Sc3ncnc4sc5c(c34)CCN(Cc3ccccc3)C5)s2)c1 [Compound 11b, 1-(5-((7-benzyl-5,6,7,8-tetrahydropyrido[4',3':4,5]thieno[2,3-d]pyrimidin-4-yl)thio)-1,3,4-thiadiazol-2-yl)-3-(m-tolyl)urea] | unable to induce apoptosis | 18.89 ± 0.09 | 67.7 ± 2.53 | 32.1 ± 0.92 | 3.9 | 138 to 139 | unable to induce apoptosis | 46.8 ± 1.49 | 8.22 ± 0.09 | 48.1 ± 0.22 |  | 
2 | O=C(Nc1ccc(Cl)c(Cl)c1)Nc1nnc(Sc2ncnc3sc4c(c23)CCN(Cc2ccccc2)C4)s1 [Compound 11h, 1-(5-((7-benzyl-5,6,7,8-tetrahydropyrido[4',3':4,5]thieno[2,3-d]pyrimidin-4-yl)thio)-1,3,4-thiadiazol-2-yl)-3-(3,4-dichlorophenyl)urea] | unable to induce apoptosis | 7.44 ± 0.06 | 64.2 ± 2.2 | 41.2 ± 0.45 | 4.8 | 190 to 192 | unable to induce apoptosis | 70.2 ± 1.92 | 8.52 ± 0.02 | 53.71 ± 0.5 | slightly weaker inhibitory effects | 
3 | COc1cccc(NC(=O)Nc2nnc(Sc3ncnc4sc5c(c34)CCN(Cc3ccncc3)C5)s2)c1 [Compound 11o, 1-(3-methoxyphenyl)-3-(5-((7-(pyridin-4-ylmethyl)-5,6,7,8-tetrahydropyrido[4',3':4,5]thieno[2,3-d]pyrimidin-4-yl)thio)-1,3,4-thiadiazol-2-yl)urea] |  | 20.6 ± 0.5 | 65.8 ± 0.28 |  |  | 191 to 193 |  | 33.6 ± 1.41 | 14.63 ± 0.07 | 69.32 ± 0.52 |  | 
4 | O=C(Nc1cccc(F)c1)Nc1nnc(Sc2ncnc3sc4c(c23)CCN(Cc2ccncc2)C4)s1 [Compound 11q, 1-(3-fluorophenyl)-3-(5-((7-(pyridin-4-ylmethyl)-5,6,7,8-tetrahydropyrido[4',3':4,5]thieno[2,3-d]pyrimidin-4-yl)thio)-1,3,4-thiadiazol-2-yl)urea] |  | 10.13 ± 0.05 | 21.8 ± 0.72 |  |  | 243 to 246 |  | 4.5 ± 0.03 | 9.17 ± 0.04 | 74.3 ± 2.12 |  | 
5 | O=C(Nc1nnc(Sc2ncnc3sc4c(c23)CCN(Cc2ccncc2)C4)s1)Nc1ccccc1Cl [Compound 11s, 1-(2-chlorophenyl)-3-(5-((7-(pyridin-4-ylmethyl)-5,6,7,8-tetrahydropyrido[4',3':4,5]thieno[2,3-d]pyrimidin-4-yl)thio)-1,3,4-thiadiazol-2-yl)urea] |  | 6.87 ± 0.03 | 30.5 ± 0.12 |  |  | 229 to 231 |  | 8.94 ± 0.03 | 4.69 ± 0.09 | 26.26 ± 0.24 |  | 
6 | O=C(Nc1ccc(Cl)cc1)Nc1nnc(Sc2ncnc3sc4c(c23)CCN(Cc2ccncc2)C4)s1 [Compound 11u, 1-(4-chlorophenyl)-3-(5-((7-(pyridin-4-ylmethyl)-5,6,7,8-tetrahydropyrido[4',3':4,5]thieno[2,3-d]pyrimidin-4-yl)thio)-1,3,4-thiadiazol-2-yl)urea] |  | 2.08 ± 0.01 | 60.7 ± 1.13 |  |  | 188 to 190 |  | 4.96 ± 0.18 | 8.1 ± 0.02 | 27.8 ± 1.84 |  | ~30
7 | Cc1ccc(NC(=O)Nc2nnc(Sc3ncnc4sc5c(c34)CCN(Cc3ccncc3)C5)s2)cc1Cl [Compound 11w, 1-(3-chloro-4-methylphenyl)-3-(5-((7-(pyridin-4-ylmethyl)-5,6,7,8-tetrahydropyrido[4',3':4,5]thieno[2,3-d]pyrimidin-4-yl)thio)-1,3,4-thiadiazol-2-yl)urea] |  | 6.23 ± 0.03 | 71.9 ± 1.1 |  |  | 157 to 159 |  | 9.42 ± 0.63 | 6.8 ± 0.05 | 38.5 ± 0.42 |  | 
8 | O=C(Nc1cccc(C(F)(F)F)c1)Nc1nnc(Sc2ncnc3sc4c(c23)CCN(Cc2ccncc2)C4)s1 [Compound 11x, 1-(5-((7-(pyridin-4-ylmethyl)-5,6,7,8-tetrahydropyrido[4',3':4,5]thieno[2,3-d]pyrimidin-4-yl)thio)-1,3,4-thiadiazol-2-yl)-3-(3-(trifluoromethyl)phenyl)urea] |  | 9.15 ± 0.02 | 60.55 ± 0.41 |  |  | 241 to 243 |  | 32.9 ± 0.61 | 9.36 ± 0.06 | 44.6 ± 0.52 |  | 
9 | O=C(Nc1ccc(Cl)c(C(F)(F)F)c1)Nc1nnc(Sc2ncnc3sc4c(c23)CCN(Cc2ccncc2)C4)s1 [Compound 11y, 1-(4-chloro-3-(trifluoromethyl)phenyl)-3-(5-((7-(pyridin-4-ylmethyl)-5,6,7,8-tetrahydropyrido[4',3':4,5]thieno[2,3-d]pyrimidin-4-yl)thio)-1,3,4-thiadiazol-2-yl)urea] |  | 57.1 ± 0.61 | 45.69 ± 0.06 |  |  | 257 to 260 |  | 4.37 ± 0.06 | 20.48 ± 0.11 | 71.6 ± 3.24 |  | 
